Data: US4431636A, “Bis(4-O-polyhexaose-thio)-phenyl ureas and method of use” (American Cyanamid Company, priority 1982, dated 1984)
Where two headings read alike, the source gives them in different places.

How the values were obtained:
[1] = system: serum complement activity; test: Guinea Pig Intraperitoneal Test (GPIP); type: in vivo; details: Cavia porcellus, ip, 200 mg/kg i.p.
Protocol: (§1) Percent inhibition is calculated by comparison with simultaneous controls.

[2] = biological target: activated human C1 (Homo sapiens, UniProt P09871); test: Test Code 026 (C1 inhibitor); type: biochemical; details: in vitro; serial twofold dilution assay, higher well number higher activity
Protocol: as §1

[3] = system: late components of human complement (C3-C9); test: Test Code 035 (C3-C9 inhibitor); type: biochemical; details: in vitro; lysis of EAC 142; serial twofold dilution assay, higher well number higher activity
Protocol: as §1

Chain of activated human C1 (P09871 16-688): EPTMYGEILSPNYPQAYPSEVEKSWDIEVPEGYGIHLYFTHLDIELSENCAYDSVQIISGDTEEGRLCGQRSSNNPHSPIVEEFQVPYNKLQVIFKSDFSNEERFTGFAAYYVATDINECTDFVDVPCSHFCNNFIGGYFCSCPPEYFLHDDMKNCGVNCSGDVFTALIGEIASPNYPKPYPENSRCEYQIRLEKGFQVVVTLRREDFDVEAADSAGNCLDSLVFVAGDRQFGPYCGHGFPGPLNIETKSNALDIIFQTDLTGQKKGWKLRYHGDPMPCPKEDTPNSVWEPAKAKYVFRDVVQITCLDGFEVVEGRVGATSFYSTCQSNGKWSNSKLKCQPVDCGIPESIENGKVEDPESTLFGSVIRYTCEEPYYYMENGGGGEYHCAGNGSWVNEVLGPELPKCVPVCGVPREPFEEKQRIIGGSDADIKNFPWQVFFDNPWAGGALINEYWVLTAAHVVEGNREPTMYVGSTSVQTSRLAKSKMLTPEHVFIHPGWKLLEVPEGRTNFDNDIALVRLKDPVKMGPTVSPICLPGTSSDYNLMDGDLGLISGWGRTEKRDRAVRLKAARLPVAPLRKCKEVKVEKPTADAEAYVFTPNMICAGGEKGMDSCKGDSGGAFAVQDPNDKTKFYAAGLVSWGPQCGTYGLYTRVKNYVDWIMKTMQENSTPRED
Chain of activated human C1 (P00736 18-705 partner): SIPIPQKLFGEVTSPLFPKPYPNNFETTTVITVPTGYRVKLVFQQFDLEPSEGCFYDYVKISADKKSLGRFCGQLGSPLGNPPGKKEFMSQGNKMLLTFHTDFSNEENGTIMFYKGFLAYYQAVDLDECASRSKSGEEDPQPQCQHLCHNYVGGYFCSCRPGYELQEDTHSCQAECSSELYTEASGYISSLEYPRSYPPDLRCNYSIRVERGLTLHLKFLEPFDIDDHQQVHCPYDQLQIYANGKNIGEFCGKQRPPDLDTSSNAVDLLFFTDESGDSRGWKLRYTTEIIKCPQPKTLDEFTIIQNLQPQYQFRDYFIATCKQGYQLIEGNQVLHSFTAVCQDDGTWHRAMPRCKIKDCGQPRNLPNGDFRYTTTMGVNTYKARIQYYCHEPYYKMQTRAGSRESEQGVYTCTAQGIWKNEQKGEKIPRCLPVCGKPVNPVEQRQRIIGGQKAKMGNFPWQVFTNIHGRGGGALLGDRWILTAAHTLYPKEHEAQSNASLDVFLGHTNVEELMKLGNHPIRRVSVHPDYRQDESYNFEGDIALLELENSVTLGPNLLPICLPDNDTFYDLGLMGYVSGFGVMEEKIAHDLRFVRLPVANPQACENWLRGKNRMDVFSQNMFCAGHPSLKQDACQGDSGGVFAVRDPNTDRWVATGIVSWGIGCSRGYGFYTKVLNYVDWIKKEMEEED
Chain of activated human C1 (P02745 23-245 partner): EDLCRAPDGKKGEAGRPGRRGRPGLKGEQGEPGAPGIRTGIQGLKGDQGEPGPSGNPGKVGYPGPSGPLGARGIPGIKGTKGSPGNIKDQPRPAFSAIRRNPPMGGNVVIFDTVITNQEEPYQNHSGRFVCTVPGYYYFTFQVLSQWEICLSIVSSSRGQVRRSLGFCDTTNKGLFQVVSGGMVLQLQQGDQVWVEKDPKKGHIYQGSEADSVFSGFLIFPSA
Chain of activated human C1 (P02746 28-253 partner): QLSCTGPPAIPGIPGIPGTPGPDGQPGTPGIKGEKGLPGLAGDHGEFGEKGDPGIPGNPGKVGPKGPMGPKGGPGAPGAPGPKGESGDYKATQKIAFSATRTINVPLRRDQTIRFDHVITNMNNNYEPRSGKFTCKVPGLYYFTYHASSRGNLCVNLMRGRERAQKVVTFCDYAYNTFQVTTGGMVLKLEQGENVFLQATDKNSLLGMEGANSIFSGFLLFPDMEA
Chain of activated human C1 (P02747 29-245 partner): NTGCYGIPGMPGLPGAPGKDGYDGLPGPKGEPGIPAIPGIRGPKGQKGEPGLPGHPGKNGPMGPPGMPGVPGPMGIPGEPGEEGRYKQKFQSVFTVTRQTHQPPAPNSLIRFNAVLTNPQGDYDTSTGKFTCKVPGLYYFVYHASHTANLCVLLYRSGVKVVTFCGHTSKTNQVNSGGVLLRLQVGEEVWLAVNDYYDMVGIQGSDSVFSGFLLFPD

O=C(Nc1ccc(S[C@@H]2O[C@H](COS(=O)(=O)O)[C@@H](O[C@H]3O[C@H](COS(=O)(=O)O)[C@@H](OS(=O)(=O)O)[C@H](OS(=O)(=O)O)[C@H]3OS(=O)(=O)O)[C@H](OS(=O)(=O)O)[C@H]2OS(=O)(=O)O)cc1)Nc1ccc(S[C@@H]2O[C@H](COS(=O)(=O)O)[C@@H](O[C@H]3O[C@H](COS(=O)(=O)O)[C@@H](OS(=O)(=O)O)[C@H](OS(=O)(=O)O)[C@H]3OS(=O)(=O)O)[C@H](OS(=O)(=O)O)[C@H]2OS(=O)(=O)O)cc1.[Na].[Na].[Na].[Na].[Na].[Na].[Na].[Na].[Na].[Na].[Na].[Na].[Na].[Na] [Tetradecasodium N,N'-bis[4-[[2,3,6-tri-O-sulfo-4-O-(2,3,4,6-tetra-O-sulfo-α-D-glucopyranosyl)-β-D-glucopyranosyl]thio]phenyl]urea]
inhibition at 200 mg/kg ([1]; serum taken 2 hours after injection, read-out: In vivo Activity (Guinea Pig % Inhibition) (Intraperitoneal) Time 2 Hours): 90%
inhibition at 200 mg/kg ([1]; serum taken 6 hours after injection, read-out: In vivo Activity (Guinea Pig % Inhibition) (Intraperitoneal) Time 6 Hours): 91%
inhibition at 200 mg/kg ([1]; serum taken 24 hours after injection, read-out: In vivo Activity (Guinea Pig % Inhibition) (Intraperitoneal) Time 24 Hours): 58%
C-1 026 Wells [2]: 11 Wells
C-Late 035 Wells [3]: 2 Wells
